{
  "source": "ChEMBL document CHEMBL1141281",
  "about": "“Targeted natural product isolation guided by HPLC-SPE-NMR: constituents of Hubertia species” (2007)",
  "key": {"Bacillus subtilis [1]": {"test_system": "Bacillus subtilis", "assay": "Antimicrobial activity against Bacillus subtilis ATCC 6633 after 24 hrs by MTT assay", "assay_type": "functional", "conditions": "ATCC 6633, 24 h"}, "Staphylococcus aureus [2]": {"test_system": "Staphylococcus aureus", "assay": "Antimicrobial activity against Staphylococcus aureus ATCC 6538 after 24 hrs by MTT assay", "assay_type": "functional", "conditions": "ATCC 6538, 24 h"}, "Escherichia coli [3]": {"test_system": "Escherichia coli", "assay": "Antimicrobial activity against Escherichia coli ATCC 11229 after 24 hrs by MTT assay", "assay_type": "functional", "conditions": "ATCC 11229, 24 h"}, "[4]": {"assay": "Inhibition of Cu2+ induced human LDL oxidation", "assay_type": "functional"}, "Staphylococcus aureus [5]": {"test_system": "Staphylococcus aureus", "assay": "Antimicrobial activity against Staphylococcus aureus ATCC 6538 at 500 ug/mL after 24 hrs by MTT assay", "assay_type": "functional, organism-based"}, "Bacillus subtilis [6]": {"test_system": "Bacillus subtilis", "assay": "Antimicrobial activity against Bacillus subtilis ATCC 6633 at 500 ug/mL after 24 hrs by MTT assay", "assay_type": "functional, organism-based"}, "Escherichia coli [7]": {"test_system": "Escherichia coli", "assay": "Antimicrobial activity against Escherichia coli ATCC 11229 at 500 ug/mL after 24 hrs by MTT assay", "assay_type": "functional, organism-based"}},
  "note": "Calls of active or inactive are those of the source. The calls are words filed in the database; no cut-off is given here.",
  "data": [
    {"smiles": "CN[C@@H]1[C@H](O[C@H]2[C@H](O[C@H]3[C@H](O)[C@@H](O)[C@H](N=C(N)N)[C@@H](O)[C@@H]3N=C(N)N)O[C@@H](C)[C@]2(O)C=O)O[C@@H](CO)[C@H](O)[C@H]1O", "note": "(stereo in doubt) [STREPTOMYCIN]", "values": [
      {"measurement": "MIC", "setting": "Bacillus subtilis [1]", "result": 12.5, "unit": "µg/mL"},
      {"measurement": "MIC", "setting": "Staphylococcus aureus [2]", "result": 12.5, "unit": "µg/mL"},
      {"measurement": "MIC", "setting": "Escherichia coli [3]", "result": 12.5, "unit": "µg/mL"}
    ]},
    {"smiles": "O=C(/C=C/c1ccc(O)c(O)c1)O[C@@H]1C[C@](O)(C(=O)O)C[C@@H](OC(=O)/C=C/c2ccc(O)c(O)c2)[C@H]1O", "values": [
      {"measurement": "Activity", "setting": "[4]", "result": "Dose-dependent effect"}
    ]},
    {"smiles": "O=C(C=Cc1ccc(O)c(O)c1)O[C@@H]1C[C@](O)(C(=O)O)C[C@@H](O)[C@H]1O", "values": [
      {"measurement": "Activity", "setting": "[4]", "result": "Dose-dependent effect"}
    ]},
    {"smiles": "O=C1C=CC(O)(CC(=O)O[C@H]2[C@H](OC(=O)/C=C/c3ccc(O)c(O)c3)C[C@](O)(C(=O)O)C[C@H]2OC(=O)/C=C/c2ccc(O)c(O)c2)C=C1", "values": [
      {"measurement": "Activity", "setting": "Staphylococcus aureus [5]", "result": "inactive"},
      {"measurement": "Activity", "setting": "Bacillus subtilis [6]", "result": "inactive"},
      {"measurement": "Activity", "setting": "Escherichia coli [7]", "result": "inactive"}
    ]}
  ]
}
